Laboratory results from publication PMC4105339 (Antiviral research, 2014).
pIC50: −log10 of the molar value. Marks after values point to notes of the source that are not given here.

How the values were obtained:
[1] = tested on: B/Perth/211/01 D197E mutant neuraminidase
[2] = tested on: A/Fukui/45/04 H3N2 E119V mutant neuraminidase
[3] = biological target: B/Perth/211/01 D197E mutant neuraminidase; settings: cited from earlier work
H3N2 E119V neuraminidase = settings: cited from earlier work
[4] = tested on: A/Mississippi/03/01 H1N1 H274Y mutant neuraminidase

SMILES: CCC(CC)[C@H](NC(C)=O)[C@@H]1[C@H](O)[C@@H](C(=O)O)C[C@H]1N=C(N)N [Peramivir, peramivir]
- Time (T½) for reaction rates to reach half the maximum rate of the uninhibited control [1]: 18.8 min
- Time (T½) for reaction rates to reach half the maximum rate of the uninhibited control [2]: >240 min
- pIC50 [3]: 7.38

SMILES: CC(=O)N[C@H]1[C@H]([C@H](O)[C@H](O)CO)OC(C(=O)O)=C[C@@H]1N=C(N)N [Zanamivir]
- Time (T½) for reaction rates to reach half the maximum rate of the uninhibited control [1]: 17.0^* min
- changes in IC50 from 10 to 60 min in the preincubation reaction (H3N2 E119V neuraminidase): 1.9 fold
- Time (T½) for reaction rates to reach half the maximum rate of the uninhibited control [4]: 43.2 min
- pIC50 [3]: 6.59
